Reference: ChEMBL document CHEMBL1201862, “PubChem BioAssay data set” (2004)
Activity calls are given as the source filed them.

Assays:
[1] = Trypanosoma cruzi growth suppression in host cells – NIH3T3 host cells, beta-gal luminescence, confirmation (AID 2044); format: functional, cell-based;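 note: intracellular parasites grown in NIH/3T3 mouse fibroblasts as host cells; luminescent beta-galactosidase reporter signal from transgenic T. cruzi replicating inside host cells; inhibitors lower the luminescence signal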
[2] = NIH3T3 cell viability loss – ATP luminescence, mouse fibroblasts, counter-screen, dose response (AID 2010); format: functional, cell-based;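 note: cells exposed to compound for about 90 hours before reading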
cells [3] = assay: cells
[4] = target: Voltage-gated inwardly rectifying potassium channel KCNH2 (Homo sapiens, UniProt Q12809); assay: concentration-dependent hERG rescue from blockers – cell-based, thallium flux, dose response (AID 2121); format: ADME
Voltage-gated inwardly rectifying potassium channel KCNH2, sequence (Q12809 whole entry): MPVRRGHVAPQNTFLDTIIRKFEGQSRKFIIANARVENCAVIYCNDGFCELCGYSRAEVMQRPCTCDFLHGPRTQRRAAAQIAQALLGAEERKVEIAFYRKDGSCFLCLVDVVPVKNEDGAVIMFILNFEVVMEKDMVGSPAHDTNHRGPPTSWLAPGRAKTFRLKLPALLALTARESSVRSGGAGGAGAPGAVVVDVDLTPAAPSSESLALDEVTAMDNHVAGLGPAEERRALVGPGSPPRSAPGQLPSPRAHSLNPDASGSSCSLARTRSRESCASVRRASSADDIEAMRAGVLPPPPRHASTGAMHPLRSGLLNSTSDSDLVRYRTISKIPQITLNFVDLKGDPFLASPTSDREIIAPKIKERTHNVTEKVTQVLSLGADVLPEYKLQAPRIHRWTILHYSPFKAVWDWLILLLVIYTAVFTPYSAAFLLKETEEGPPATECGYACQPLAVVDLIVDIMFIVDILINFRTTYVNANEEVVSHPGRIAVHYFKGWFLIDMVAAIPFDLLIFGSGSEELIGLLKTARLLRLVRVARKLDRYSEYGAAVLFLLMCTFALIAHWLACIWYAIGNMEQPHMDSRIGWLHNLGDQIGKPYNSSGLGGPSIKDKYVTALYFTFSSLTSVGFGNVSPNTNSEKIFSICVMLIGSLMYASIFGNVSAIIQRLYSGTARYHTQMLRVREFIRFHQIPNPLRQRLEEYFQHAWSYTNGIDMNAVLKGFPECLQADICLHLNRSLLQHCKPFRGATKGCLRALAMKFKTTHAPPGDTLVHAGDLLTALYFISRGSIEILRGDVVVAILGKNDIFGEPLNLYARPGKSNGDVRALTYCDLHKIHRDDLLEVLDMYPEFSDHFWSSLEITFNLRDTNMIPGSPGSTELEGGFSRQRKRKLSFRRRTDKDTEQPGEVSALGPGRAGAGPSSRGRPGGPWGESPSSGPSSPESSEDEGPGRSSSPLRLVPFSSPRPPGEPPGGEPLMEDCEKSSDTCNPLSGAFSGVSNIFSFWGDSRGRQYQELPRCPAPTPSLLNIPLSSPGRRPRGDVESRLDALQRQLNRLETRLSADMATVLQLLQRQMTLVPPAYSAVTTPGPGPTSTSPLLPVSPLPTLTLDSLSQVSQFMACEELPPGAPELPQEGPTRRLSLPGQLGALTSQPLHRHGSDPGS

Prothrombin = Prothrombin (Homo sapiens, UniProt P00734); assay: Thrombin 1536 HTS Dose Response Confirmation. [Related pubchem assays: 1046 (Thrombin 1536 HTS; hits were confirmed in this assay)]; format: functional
[5] = target: Heat shock protein HSP 90-alpha (Homo sapiens, UniProt P07900); assay: Luminescence-based dose response biochemical high throughput screening assay for inhibitors of the Heat Shock Protein 90 (HSP90). [Related pubchem assays: 1831 (Summary AID.), 1846 (Confirmation screen.), 1789 (Primary screen.)]
[6] = target: FAD-linked sulfhydryl oxidase ALR (Homo sapiens, UniProt P55789); assay: ALR-catalysed DTT oxidation blockers – biochemical, H2O2 detection, luminescence, cherry-pick, dose response (AID 493248)
[7] = target: Peroxisome proliferator-activated receptor gamma/Nuclear receptor corepressor 2 (Homo sapiens, UniProt P37231+Q9Y618); assay: Counterscreen for NR2E3 inverse agonists: TR-FRET-based biochemical high throughput dose response assay to identify inverse agonists of the interaction between peroxisome proliferator-activated receptor gamma (PPARg) and nuclear receptor co-repressor 2 (NCOR2).; format: functional
Peroxisome proliferator-activated receptor gamma/Nuclear receptor corepressor 2, sequence (P37231 whole entry): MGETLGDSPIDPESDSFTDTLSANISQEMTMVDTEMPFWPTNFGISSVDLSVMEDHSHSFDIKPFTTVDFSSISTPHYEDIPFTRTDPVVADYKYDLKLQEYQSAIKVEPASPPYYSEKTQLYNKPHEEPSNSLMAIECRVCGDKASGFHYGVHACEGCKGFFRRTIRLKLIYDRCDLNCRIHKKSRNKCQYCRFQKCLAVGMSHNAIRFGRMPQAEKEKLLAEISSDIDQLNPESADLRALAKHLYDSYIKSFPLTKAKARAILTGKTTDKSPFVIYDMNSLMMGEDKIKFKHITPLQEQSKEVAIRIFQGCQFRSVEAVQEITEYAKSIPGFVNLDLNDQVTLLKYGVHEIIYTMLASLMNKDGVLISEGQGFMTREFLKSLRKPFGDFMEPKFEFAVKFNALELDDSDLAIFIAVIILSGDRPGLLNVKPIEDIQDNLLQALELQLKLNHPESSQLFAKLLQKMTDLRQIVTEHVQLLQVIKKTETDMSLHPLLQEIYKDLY
Peroxisome proliferator-activated receptor gamma/Nuclear receptor corepressor 2, sequence (Q9Y618 whole entry): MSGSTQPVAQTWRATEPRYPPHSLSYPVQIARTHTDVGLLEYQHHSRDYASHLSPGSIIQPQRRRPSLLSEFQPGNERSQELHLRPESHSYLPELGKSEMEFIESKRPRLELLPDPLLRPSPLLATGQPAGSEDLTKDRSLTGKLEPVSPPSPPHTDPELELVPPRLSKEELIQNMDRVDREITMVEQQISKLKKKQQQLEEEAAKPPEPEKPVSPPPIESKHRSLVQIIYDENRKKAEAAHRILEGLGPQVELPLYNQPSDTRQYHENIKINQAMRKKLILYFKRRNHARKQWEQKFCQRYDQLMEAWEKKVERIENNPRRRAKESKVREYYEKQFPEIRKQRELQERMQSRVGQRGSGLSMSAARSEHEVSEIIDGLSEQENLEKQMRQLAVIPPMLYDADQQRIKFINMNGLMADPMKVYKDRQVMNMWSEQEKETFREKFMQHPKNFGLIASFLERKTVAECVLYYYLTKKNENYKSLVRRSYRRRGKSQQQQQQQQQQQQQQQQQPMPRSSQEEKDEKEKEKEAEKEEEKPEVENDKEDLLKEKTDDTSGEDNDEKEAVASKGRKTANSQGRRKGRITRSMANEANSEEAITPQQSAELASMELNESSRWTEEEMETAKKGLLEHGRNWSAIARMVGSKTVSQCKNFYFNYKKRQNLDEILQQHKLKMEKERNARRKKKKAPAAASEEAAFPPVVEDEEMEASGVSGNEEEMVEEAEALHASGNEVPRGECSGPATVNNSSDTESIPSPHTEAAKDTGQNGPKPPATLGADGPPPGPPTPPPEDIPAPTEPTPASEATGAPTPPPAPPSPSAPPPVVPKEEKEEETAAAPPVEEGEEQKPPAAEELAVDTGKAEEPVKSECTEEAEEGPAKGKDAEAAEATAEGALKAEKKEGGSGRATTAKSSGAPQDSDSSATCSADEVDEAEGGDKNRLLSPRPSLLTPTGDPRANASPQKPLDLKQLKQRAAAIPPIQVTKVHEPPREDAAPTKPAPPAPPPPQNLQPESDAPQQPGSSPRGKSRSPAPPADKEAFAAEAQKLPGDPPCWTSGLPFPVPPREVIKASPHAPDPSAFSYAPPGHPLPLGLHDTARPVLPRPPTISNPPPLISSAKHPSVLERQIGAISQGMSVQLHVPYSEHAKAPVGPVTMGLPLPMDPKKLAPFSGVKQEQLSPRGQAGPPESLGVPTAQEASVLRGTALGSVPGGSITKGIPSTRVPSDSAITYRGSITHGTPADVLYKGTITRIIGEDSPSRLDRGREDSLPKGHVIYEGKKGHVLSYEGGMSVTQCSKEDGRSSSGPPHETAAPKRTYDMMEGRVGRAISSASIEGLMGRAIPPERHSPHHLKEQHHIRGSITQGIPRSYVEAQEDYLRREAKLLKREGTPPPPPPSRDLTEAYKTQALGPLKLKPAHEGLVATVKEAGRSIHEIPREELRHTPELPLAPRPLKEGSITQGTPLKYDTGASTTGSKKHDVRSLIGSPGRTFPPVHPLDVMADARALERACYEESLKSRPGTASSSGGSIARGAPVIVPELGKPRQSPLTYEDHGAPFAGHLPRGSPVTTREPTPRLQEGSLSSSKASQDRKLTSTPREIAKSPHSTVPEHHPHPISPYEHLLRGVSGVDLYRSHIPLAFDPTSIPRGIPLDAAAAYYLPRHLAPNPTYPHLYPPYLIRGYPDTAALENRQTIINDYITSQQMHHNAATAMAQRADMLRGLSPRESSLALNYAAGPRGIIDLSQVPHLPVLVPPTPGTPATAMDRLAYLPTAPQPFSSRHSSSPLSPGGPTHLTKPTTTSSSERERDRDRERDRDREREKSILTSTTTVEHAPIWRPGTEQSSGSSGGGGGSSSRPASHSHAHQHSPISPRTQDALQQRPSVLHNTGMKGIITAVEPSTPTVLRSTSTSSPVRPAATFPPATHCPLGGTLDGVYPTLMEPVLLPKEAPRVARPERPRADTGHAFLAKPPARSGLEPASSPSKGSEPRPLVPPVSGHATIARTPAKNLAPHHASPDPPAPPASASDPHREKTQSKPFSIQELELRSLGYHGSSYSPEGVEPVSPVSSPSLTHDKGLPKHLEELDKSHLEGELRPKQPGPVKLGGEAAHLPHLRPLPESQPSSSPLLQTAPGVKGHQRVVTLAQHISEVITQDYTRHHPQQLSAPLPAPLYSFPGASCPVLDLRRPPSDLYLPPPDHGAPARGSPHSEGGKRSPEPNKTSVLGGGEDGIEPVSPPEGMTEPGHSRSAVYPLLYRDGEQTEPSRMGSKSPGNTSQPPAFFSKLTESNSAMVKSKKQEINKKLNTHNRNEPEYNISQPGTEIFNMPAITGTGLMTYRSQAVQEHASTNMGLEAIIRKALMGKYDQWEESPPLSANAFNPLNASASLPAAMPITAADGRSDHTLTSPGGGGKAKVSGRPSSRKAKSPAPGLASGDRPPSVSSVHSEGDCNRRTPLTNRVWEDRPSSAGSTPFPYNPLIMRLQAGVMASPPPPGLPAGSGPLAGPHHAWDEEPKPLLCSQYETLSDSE

[8] = target: Photoreceptor-specific nuclear receptor (Homo sapiens, UniProt Q9Y5X4); assay: ligands suppressing NR2E3 nuclear receptor activity – biochemical, TR-FRET, dose response (AID 463256); format: functional
Photoreceptor-specific nuclear receptor, sequence (Q9Y5X4 whole entry): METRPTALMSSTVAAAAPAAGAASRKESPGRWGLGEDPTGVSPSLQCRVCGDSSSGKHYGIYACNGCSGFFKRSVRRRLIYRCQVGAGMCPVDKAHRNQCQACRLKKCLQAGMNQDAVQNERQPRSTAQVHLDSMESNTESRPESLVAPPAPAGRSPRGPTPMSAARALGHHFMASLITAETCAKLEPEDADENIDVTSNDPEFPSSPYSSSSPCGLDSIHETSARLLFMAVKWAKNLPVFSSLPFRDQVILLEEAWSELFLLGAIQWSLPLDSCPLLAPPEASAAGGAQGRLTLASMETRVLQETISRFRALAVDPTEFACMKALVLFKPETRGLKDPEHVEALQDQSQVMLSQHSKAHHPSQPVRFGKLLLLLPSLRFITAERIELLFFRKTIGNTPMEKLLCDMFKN

[9] = mitochondrial function rescue without frataxin homolog – Friedreich's ataxia, plus single-dose screen, dose response (AID 1465); format: functional;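 note: yeast depleted of Yfh1p frataxin homolog grown on glycerol needing respiration; WST-1 tetrazolium dye reduction as measure of cellular dehydrogenase metabolic activity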
[10] = luciferase reporter signal suppression in cells – H4 neuroglioma cells, luminescence, dose response (AID 1990); format: functional, cell-based
[11] = luciferase reporter signal reduction – luminescence, H4-C neuroglioblastoma cells, dose response (AID 2458); format: functional, cell-based;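 note: H4 neuroglioblastoma cells stably carrying a luciferase reporter gene fusion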
BJ [12] = assay: BJ-TERT fibroblast viability loss – cell-based, RAS-independent, luminescence, dose response (AID 1933); format: functional; settings: Homo sapiens
cells [13] = format: functional, cell-based
[14] = Luminescence Cell-Based Dose Response HTS to Identify Inhibitors of 5'UTR Stem-Loop Driven Prion Protein mRNA Translation in H4 Neuroglioblastoma Cells. [Related pubchem assays: 1827 (Project Summary), 1813 (Primary HTS)]; format: functional
[15] = alpha-synuclein stem-loop luciferase translation blockers – H4 neuroglioma cells, luminescence, confirmation (AID 1988); format: functional, cell-based
BJ [16] = assay: cells; format: functional, cell-based; settings: Homo sapiens
BJ [17] = assay: BJ-TERT-LT-ST fibroblast viability loss – cell-based, RAS-independent, luminescence, dose response (AID 1935); format: functional; settings: Homo sapiens;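 note: BJ fibroblasts immortalized with TERT plus LT and ST oncogenes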
[18] = DRD fibroblast viability loss – cell-based, non-viral oncogenic, luminescence, dose response (AID 1934); format: functional; settings: Homo sapiens
[19] = alpha-synuclein stem-loop translation blockers – luminescence, H4 neuroglioblastoma cells, dose confirmation, confirmation (AID 2454); format: functional, cell-based;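 note: H4 neuroglioblastoma cells carrying an alpha-synuclein 5'UTR luciferase reporter; potency for inhibition of the luciferase signal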
[20] = HEK-293T viability loss after treatment – luminescence, T-cell screen hits, cytotoxicity control for TCR NF-kB inhibitor project, dose response (AID 489026); format: functional, cell-based;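 note: cells exposed to compound about 14 hours before the viability readout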
BJ [21] = assay: growth inhibition of engineered Ras-driven BJ cells – cell-based, alamar blue fluorescence, cherrypicked samples, dose response (AID 2631); format: functional; settings: Homo sapiens;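 note: confirmatory dose-response assay in RAS-dependent BJ fibroblasts engineered with TERT, LT and ST, with cytotoxicity read by fluorescence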
[22] = target: T1, Fructose-bisphosphate aldolase (Mycobacterium tuberculosis, UniProt P9WQA3); assay: Fluorescence-based biochemical high throughput dose response assay for inhibitors of the fructose-bisphosphate aldolase (FBA) of M. tuberculosis.; format: functional
T1 sequence (P9WQA3 whole entry): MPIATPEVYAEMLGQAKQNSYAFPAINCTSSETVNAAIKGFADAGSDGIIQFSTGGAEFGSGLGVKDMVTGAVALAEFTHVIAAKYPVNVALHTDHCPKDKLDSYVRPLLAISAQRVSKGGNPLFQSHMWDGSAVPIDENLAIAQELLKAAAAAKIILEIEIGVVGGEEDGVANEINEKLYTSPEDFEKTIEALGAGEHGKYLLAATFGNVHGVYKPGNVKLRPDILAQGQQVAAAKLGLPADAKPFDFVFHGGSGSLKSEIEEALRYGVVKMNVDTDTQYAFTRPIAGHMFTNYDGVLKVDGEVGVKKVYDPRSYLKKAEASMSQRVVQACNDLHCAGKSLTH

[23] = target: T2, Neuropeptides B/W receptor type 1 (Homo sapiens, UniProt P48145); assay: Fluorescence-based dose response cell-based high throughput screening assay to identify antagonists of the G-protein coupled receptor 7 (GPR7). [Related pubchem assays: 1952 (Screening assay (GPR7 antagonists).), 1880 (Summary AID.)]; format: functional
T2 sequence (P48145 whole entry): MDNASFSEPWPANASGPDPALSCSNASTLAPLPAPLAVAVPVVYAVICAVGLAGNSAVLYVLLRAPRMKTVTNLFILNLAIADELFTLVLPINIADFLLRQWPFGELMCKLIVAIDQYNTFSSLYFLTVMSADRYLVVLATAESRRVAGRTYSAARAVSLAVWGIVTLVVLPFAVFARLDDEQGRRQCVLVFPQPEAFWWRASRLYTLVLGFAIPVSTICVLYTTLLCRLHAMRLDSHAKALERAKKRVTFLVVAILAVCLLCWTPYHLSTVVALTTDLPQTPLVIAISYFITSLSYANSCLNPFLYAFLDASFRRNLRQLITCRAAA

[24] = target: Melanin-concentrating hormone receptor 1 (Homo sapiens, UniProt Q99705); assay: Fluorescence-based counterscreen for antagonists of the G-protein coupled receptor 7 (GPR7): cell-based high throughput dose response assay to identify antagonists of the melanin-concentrating hormone receptor 1 (MCHR1).; format: functional
[25] = target: T3, Carboxy-terminal domain RNA polymerase II polypeptide A small phosphatase 1 (Homo sapiens, UniProt Q9GZU7); assay: CTDSP1 inhibitors, concentration-response, biochemical, absorbance readout, ultra-high-throughput screen actives (AID 540297); format: functional
T3 sequence (Q9GZU7 whole entry): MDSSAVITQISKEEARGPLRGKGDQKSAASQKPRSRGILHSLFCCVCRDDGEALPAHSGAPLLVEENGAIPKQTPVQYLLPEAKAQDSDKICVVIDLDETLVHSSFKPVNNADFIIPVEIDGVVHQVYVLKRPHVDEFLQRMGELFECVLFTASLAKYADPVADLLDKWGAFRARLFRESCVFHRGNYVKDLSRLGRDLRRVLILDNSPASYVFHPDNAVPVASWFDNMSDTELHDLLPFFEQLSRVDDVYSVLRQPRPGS

[26] = target: T4, RNA-binding protein pos-1 (Caenorhabditis elegans, UniProt G5EF15); assay: disruptors of C. elegans POS-1 RNA interaction – biochemical, fluorescence polarization, dose response (AID 1964);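 note: purified POS-1 fused to maltose binding protein made in E. coli; potency of compounds blocking POS-1 binding to fluorescent RNA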
T4 sequence (G5EF15 whole entry): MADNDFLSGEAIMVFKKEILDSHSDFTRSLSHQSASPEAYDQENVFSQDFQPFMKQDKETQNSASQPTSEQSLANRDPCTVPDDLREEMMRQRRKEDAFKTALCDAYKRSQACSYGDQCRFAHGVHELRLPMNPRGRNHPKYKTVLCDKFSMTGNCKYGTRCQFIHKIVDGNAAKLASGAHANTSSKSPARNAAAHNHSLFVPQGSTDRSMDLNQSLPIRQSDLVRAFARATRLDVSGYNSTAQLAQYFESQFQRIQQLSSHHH

[27] = target: T5, Zinc finger protein mex-5 (Caenorhabditis elegans, UniProt Q9XUB2); assay: potency of MEX-5 RNA-binding blockers – biochemical, C. elegans, fluorescence polarization, dose response (AID 1960)
T5 sequence (Q9XUB2 whole entry): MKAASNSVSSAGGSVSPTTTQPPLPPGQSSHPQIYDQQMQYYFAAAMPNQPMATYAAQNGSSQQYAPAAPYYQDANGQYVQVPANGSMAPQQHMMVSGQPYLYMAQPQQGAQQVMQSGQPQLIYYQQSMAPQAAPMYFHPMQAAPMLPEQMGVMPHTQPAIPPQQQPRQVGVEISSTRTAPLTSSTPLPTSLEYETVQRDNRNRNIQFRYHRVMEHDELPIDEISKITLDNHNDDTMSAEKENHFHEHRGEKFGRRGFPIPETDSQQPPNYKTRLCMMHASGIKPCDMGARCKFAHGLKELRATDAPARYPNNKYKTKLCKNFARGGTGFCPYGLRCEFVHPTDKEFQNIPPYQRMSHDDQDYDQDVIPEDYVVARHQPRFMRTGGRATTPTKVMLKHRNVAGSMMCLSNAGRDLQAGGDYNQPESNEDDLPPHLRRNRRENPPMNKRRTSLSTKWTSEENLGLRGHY

[28] = target: T6, Induced myeloid leukemia cell differentiation protein Mcl-1 (Homo sapiens, UniProt Q07820); assay: blockers of MCL1 binding to BIM peptide – biochemical, fluorescence polarization, BIM-BH3 peptide, 1536-well, dose response (AID 2217)
T6 sequence (Q07820 whole entry): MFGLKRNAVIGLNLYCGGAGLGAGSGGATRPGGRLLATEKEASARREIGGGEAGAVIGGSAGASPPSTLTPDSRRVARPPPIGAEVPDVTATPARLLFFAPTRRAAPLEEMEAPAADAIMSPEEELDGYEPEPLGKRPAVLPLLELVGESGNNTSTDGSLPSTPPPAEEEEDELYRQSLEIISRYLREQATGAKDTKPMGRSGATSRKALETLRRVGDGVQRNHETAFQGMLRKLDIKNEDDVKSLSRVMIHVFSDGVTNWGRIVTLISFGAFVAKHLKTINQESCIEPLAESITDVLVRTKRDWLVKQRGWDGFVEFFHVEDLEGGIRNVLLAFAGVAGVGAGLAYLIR

Bcl-2-like protein 1 = Bcl-2-like protein 1 (Homo sapiens, UniProt Q07817); assay: blockers of BCLXL peptide binding – biochemical, fluorescence polarization, 1536-well, selectivity assay for MCL1 inhibitor project, dose response (AID 2218)
[29] = target: T6, Induced myeloid leukemia cell differentiation protein Mcl-1; format: functional
[30] = target: Glucose-6-phosphate 1-dehydrogenase (Homo sapiens, UniProt P11413); assay: inhibition of Homo sapiens G6PD, dose series – biochemical, fluorescence, selectivity assay for P. falciparum G6PD inhibitor project, dose response (AID 504792); format: functional
Vero = assay: viability of Vero cells under compound – cytotoxicity control for flavivirus capping enzyme inhibitors (AID 588742); format: functional; settings: Chlorocebus sabaeus
Genome polyprotein = Genome polyprotein (dengue virus type 2, UniProt P29990); assay: flavivirus cap methylation enzyme inhibition – biochemical, confirmation dose response, primary screen (AID 588689); format: functional
[31] = HGIII-sPLA2 enzyme inhibition potency – biochemical, QFRET, IC50, dose response (AID 743457);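 note: green fluorescence rise as the enzyme cleaves BODIPY PC-A2 in liposomes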
[32] = viability loss in HepG2 hepatoma cells – cell-based, ATP luminescence, cherry-pick, activator set 2, cytotoxicity control, dose response (AID 1053143); format: functional
[33] = viability loss in THP-1 monocytes – THP-1 cells, cytotoxicity control for Vif-APOBEC3G degradation inhibitor project, dose response (AID 1117359); format: functional; settings: THP-1

In the case of `CN(C)CCCN(C(=O)COc1ccc(Cl)cc1)c1nc2cc3c(cc2s1)OCCO3`, the EC50 [1] is reported as < 0.1 µM (active), the EC50 [2] is reported as > 60 µM (not active) and the EC50 (cells [3]) is reported as 0.069 µM (active).

In the case of `O=C(NCC(c1cccnc1)N1CCN(c2ccccc2)CC1)Oc1ccccc1` (stereo not drawn), the EC50 [1] is reported as < 0.1 µM (active), the EC50 [2] is reported as > 30 µM (not active) and the EC50 (cells [3]) is reported as 0.052 µM (active).

For `CCN(CC)c1ccc(NC(=S)NC(=O)c2cccs2)cc1`, the EC50 [4] was 1.24 µM (active).

With `COC(=O)c1nnc(NC(=O)c2ccc(F)cc2)[nH]1` the IC50 (Prothrombin) was 0.297 µM (active).

In the case of `O=C(O)c1cccc(N2C(=O)/C(=C/c3nc4ccccc4[nH]3)SC2=S)c1`, the IC50 [5] is reported as 8.93 µM (active) and the AC50 [6] is reported as 3.31 µM (active).

With `O=C(Nc1ccc(Cl)cc1)c1ccc(-c2ccccn2)s1` the IC50 [7] was 10.9 µM (not active) and the IC50 [8] was 8.84 µM (active).

For `CCC(=O)n1nc(-c2ccc(OC)cc2)nc1NCc1cccs1`, the IC50 (Prothrombin) was 1.48 µM (active).

In the case of `O=C(NNc1nc2ccc(F)cc2s1)c1cccc(F)c1`, the EC50 [1] is reported as 3.84 µM (active), the EC50 [2] is reported as 6.48 µM (active) and the EC50 [9] is reported as > 100 µM (active).

For `CCn1c(O)c(N=NC2=NC(=O)CS2)c2ccccc21`, the EC50 [4] was 4.83 µM (active).

With `O=C(Nc1ccc(-c2ccc3nncn3n2)cc1)c1ccc(Br)o1` the IC50 [7] was 4.01 µM (active) and the IC50 [8] was 3.62 µM (active).

In the case of `N#Cc1ccc(-c2cccs2)nc1SCc1cccnc1`, the EC50 [10] is reported as 5.46 µM (active), the EC50 [11] is reported as 0.841 µM (active) and the EC50 (BJ [12]) is reported as 7.55 µM (inconclusive). The EC50 (cells [13]) was 1.24 µM (active), the EC50 [14] was 0.156 µM (active) and the EC50 [15] was < 0.1 µM (active). For the same compound, the EC50 (BJ [16]) was 15 µM (active), the EC50 (BJ [17]) was 3.66 µM (inconclusive) and the EC50 [18] was 11.5 µM (inconclusive). For the same compound, the EC50 [19] was > 12 µM (not active), the IC50 [20] was > 80 µM (inactive) and the EC50 (BJ [21]) was 0.188 µM (active). The IC50 [22] was > 1.11 µM (active).

For `CCc1ccc(C2CC(c3ccccc3Cl)Nc3nc(N)nn32)cc1` (stereo not drawn), the IC50 [23] was 5.58 µM (active) and the IC50 [24] was 19.6 µM (not active).

In the case of `Cc1ccccc1NC(=O)Cn1nnc(S(=O)(=O)c2ccc(C(C)(C)C)cc2)c1N`, the IC50 [23] is reported as > 43.8 µM (not active), the IC50 [24] is reported as > 43.8 µM (not active) and the IC50 [25] is reported as 7.74 µM (active).

In the case of `C=CC/N=c1\scc(-c2ccco2)n1/N=C/c1ccc(O)c(O)c1O`, the EC50 [26] is reported as 40.6 µM (active), the EC50 [27] is reported as 2.68 µM (active) and the IC50 [28] is reported as 2.94 µM (active). For the same compound, the IC50 (Bcl-2-like protein 1) was > 109 µM (not active), the IC50 [29] was 2.81 µM (not active) and the IC50 [30] was > 80 µM (inactive). The CC50 (Vero) was 22.8 µM (active), the IC50 (Genome polyprotein) was 83.8 µM (active) and the IC50 [31] was 49.6 µM (inactive). The AC50 [32] was 26 µM (active) and the CC50 [33] was > 40 µM (active).
